Measured values published in patent US11208412B2 (DAEGU-GYEONGBUK MEDICAL INNOVATION FOUNDATION, priority 2017, dated 2021).

What was measured:
Test in all cases: Kinase selectivity, DiscoverX scanMAX Kinase assay panel (% control)
Type in all cases: binding
[1] = biological target: T1, kinases of the scanMAX Kinase assay panel (Homo sapiens, UniProt Q13976); details: PRKG1; 1 uM
T1 construct: purchased DiscoverX Co. (contract measurement) scanMAX Kinase assay panel
T1 sequence (Q13976 1-671): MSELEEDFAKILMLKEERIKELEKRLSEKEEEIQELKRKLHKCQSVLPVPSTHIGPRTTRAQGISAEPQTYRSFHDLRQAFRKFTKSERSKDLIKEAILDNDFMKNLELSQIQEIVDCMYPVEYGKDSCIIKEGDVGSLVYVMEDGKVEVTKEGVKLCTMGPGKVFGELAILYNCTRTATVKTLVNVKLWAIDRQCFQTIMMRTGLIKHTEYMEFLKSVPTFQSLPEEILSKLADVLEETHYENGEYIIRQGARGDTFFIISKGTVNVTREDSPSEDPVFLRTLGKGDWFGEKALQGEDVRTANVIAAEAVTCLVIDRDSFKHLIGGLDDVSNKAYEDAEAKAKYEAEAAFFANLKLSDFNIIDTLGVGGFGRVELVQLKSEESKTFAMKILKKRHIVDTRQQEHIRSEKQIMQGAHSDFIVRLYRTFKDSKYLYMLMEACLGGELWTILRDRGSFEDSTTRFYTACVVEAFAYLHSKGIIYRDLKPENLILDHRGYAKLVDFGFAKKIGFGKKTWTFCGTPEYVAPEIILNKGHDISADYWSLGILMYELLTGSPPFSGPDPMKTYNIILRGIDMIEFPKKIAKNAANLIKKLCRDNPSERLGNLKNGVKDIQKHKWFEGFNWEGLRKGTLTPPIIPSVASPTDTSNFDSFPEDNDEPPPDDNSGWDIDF
Method in brief: (§1)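 Read-out is % control, normalised so a positive-control compound sits at 0% and DMSO at 100%: (test − positive)/(negative − positive)×100. Each kinase received the compound at 1 uM in DMSO. A value below 35% counts as activity.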

[2] = biological target: T2, kinases of the scanMAX Kinase assay panel (Homo sapiens, UniProt Q09013); details: DMPK; 1 uM
T2 construct: purchased DiscoverX Co. (contract measurement) scanMAX Kinase assay panel
T2 sequence (Q09013 1-629): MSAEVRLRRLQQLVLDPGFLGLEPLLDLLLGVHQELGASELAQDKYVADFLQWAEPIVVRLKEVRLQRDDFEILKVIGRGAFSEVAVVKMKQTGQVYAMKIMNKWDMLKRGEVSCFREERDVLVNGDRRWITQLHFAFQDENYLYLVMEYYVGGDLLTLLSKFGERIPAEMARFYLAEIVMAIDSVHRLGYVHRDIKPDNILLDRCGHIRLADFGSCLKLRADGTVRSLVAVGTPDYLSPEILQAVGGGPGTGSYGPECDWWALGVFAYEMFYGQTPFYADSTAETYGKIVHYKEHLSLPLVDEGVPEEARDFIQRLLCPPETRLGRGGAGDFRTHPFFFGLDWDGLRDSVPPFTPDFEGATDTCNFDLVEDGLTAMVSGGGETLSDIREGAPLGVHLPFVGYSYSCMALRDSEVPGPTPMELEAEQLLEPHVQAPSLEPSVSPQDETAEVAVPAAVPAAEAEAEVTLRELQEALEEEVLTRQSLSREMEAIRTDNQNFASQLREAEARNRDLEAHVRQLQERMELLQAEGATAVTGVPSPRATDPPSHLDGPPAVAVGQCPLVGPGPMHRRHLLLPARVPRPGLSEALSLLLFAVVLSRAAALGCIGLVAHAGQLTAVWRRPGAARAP
Method in brief: as §1

[3] = biological target: T3, kinases of the scanMAX Kinase assay panel (Homo sapiens, UniProt P24723); details: PRKCH; 1 uM
T3 construct: purchased DiscoverX Co. (contract measurement) scanMAX Kinase assay panel
Method in brief: as §1

[4] = biological target: T4, kinases of the scanMAX Kinase assay panel (Homo sapiens, UniProt P51813); details: BMX; 1 uM
T4 construct: purchased DiscoverX Co. (contract measurement) scanMAX Kinase assay panel
T4 sequence (P51813 1-675): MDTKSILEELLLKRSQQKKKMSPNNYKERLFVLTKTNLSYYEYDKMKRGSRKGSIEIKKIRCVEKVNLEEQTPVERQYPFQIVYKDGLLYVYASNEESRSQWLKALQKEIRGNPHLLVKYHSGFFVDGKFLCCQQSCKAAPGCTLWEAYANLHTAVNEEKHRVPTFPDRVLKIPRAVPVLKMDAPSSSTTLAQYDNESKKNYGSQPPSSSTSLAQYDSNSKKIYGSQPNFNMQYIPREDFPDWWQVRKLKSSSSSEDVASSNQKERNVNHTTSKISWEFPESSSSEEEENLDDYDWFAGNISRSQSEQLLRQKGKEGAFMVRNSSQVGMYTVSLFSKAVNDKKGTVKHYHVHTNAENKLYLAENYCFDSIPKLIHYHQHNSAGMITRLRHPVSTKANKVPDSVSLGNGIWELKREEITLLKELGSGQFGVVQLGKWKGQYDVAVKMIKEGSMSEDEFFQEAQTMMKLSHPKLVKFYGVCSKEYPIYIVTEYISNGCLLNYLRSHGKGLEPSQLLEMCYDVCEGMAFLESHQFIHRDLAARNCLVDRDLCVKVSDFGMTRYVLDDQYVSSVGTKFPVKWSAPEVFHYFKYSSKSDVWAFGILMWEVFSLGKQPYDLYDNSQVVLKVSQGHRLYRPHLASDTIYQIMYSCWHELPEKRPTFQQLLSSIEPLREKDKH
Method in brief: as §1

[5] = biological target: T5, kinases of the scanMAX Kinase assay panel (Homo sapiens, UniProt Q7KZI7); details: MARK2; 1 uM
T5 construct: purchased DiscoverX Co. (contract measurement) scanMAX Kinase assay panel
Method in brief: as §1

[6] = biological target: T6, kinases of the scanMAX Kinase assay panel (Homo sapiens, UniProt Q9UKE5); details: kinase TNIK; 1 uM in DMSO
T6 construct: purchased DiscoverX Co. (contract measurement) scanMAX Kinase assay panel
Method in brief: as §1

[7] = biological target: T7, kinases of the scanMAX Kinase assay panel (Homo sapiens, UniProt Q9UM73); details: ALK; 1 uM
T7 construct: purchased DiscoverX Co. (contract measurement) scanMAX Kinase assay panel
Method in brief: as §1

T3 sequence (P24723 whole entry): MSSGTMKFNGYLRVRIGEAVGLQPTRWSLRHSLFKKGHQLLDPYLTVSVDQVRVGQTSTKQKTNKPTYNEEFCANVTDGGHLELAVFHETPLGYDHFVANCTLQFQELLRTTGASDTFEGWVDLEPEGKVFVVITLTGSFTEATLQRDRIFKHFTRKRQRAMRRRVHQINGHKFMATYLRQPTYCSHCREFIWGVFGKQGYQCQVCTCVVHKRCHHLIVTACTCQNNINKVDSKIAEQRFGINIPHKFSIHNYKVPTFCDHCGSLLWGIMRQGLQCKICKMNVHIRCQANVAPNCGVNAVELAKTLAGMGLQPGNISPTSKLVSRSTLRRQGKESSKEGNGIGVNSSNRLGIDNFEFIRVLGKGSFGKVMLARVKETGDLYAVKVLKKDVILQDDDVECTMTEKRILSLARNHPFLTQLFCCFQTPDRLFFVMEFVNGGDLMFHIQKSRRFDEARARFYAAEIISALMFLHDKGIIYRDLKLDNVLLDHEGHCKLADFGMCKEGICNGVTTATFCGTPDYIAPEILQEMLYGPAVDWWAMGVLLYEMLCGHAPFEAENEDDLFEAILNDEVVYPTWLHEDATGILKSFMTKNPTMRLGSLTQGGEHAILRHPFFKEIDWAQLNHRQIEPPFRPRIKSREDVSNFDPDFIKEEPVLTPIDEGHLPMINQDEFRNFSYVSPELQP
T7 sequence (Q9UM73 19-1620): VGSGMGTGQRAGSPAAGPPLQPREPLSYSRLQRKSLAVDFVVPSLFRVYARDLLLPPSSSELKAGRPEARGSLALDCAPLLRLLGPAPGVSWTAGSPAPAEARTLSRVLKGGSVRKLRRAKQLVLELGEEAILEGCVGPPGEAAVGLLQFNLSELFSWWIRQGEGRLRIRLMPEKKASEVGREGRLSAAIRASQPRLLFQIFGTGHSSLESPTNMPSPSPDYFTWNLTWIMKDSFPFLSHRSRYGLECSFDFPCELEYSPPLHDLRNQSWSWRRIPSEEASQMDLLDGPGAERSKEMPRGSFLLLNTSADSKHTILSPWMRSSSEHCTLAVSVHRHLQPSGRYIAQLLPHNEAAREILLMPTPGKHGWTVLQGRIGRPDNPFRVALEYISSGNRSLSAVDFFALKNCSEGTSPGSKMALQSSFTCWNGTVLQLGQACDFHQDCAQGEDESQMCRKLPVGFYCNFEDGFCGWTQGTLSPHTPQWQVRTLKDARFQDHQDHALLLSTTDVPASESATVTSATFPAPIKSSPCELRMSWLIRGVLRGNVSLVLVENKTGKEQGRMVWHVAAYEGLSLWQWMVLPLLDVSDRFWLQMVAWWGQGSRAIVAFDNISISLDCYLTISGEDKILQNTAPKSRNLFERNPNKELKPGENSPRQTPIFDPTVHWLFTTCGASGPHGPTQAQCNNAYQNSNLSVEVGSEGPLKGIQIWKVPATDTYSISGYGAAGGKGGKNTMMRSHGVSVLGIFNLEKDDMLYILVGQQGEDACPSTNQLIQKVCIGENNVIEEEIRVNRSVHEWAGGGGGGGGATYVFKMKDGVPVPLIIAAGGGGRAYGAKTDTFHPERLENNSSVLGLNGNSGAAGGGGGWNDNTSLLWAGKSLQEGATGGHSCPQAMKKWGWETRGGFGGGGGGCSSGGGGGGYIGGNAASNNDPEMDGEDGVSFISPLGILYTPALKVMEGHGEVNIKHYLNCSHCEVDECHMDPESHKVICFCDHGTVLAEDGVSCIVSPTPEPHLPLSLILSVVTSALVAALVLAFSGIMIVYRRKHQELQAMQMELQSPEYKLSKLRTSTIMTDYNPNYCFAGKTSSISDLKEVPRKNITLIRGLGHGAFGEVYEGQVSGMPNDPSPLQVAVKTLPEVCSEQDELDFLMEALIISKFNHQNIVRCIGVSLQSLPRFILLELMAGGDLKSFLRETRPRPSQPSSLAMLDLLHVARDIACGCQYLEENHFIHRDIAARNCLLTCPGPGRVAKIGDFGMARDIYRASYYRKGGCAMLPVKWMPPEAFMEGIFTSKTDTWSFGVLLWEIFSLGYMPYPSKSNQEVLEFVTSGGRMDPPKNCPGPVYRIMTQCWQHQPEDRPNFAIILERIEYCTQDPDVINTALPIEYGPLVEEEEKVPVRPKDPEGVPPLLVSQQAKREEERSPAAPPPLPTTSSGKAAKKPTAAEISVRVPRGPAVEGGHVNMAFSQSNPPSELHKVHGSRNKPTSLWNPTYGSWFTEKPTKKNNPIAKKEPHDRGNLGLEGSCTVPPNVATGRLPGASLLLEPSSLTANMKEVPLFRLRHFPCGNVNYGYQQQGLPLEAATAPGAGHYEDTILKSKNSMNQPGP
T5 sequence (Q7KZI7 whole entry): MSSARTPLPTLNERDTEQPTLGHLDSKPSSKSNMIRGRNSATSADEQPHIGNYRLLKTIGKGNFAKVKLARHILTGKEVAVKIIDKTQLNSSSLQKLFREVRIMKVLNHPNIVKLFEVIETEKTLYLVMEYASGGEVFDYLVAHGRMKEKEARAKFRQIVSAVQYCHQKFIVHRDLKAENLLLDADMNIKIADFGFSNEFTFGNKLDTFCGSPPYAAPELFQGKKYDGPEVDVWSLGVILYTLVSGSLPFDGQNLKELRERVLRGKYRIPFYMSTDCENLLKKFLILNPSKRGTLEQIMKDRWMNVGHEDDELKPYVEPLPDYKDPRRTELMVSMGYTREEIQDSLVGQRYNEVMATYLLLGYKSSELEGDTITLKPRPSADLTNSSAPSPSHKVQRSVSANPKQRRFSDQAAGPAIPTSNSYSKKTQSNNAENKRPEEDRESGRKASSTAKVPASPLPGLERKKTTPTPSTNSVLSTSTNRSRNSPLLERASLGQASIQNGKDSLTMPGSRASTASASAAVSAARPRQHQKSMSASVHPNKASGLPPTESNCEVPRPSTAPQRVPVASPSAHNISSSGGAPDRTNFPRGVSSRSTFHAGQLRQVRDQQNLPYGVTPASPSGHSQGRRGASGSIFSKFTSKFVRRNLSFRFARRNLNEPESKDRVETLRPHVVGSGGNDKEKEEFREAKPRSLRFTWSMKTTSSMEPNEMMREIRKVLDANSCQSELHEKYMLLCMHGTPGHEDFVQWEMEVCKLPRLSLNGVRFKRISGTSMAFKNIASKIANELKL
T6 sequence (Q9UKE5 whole entry): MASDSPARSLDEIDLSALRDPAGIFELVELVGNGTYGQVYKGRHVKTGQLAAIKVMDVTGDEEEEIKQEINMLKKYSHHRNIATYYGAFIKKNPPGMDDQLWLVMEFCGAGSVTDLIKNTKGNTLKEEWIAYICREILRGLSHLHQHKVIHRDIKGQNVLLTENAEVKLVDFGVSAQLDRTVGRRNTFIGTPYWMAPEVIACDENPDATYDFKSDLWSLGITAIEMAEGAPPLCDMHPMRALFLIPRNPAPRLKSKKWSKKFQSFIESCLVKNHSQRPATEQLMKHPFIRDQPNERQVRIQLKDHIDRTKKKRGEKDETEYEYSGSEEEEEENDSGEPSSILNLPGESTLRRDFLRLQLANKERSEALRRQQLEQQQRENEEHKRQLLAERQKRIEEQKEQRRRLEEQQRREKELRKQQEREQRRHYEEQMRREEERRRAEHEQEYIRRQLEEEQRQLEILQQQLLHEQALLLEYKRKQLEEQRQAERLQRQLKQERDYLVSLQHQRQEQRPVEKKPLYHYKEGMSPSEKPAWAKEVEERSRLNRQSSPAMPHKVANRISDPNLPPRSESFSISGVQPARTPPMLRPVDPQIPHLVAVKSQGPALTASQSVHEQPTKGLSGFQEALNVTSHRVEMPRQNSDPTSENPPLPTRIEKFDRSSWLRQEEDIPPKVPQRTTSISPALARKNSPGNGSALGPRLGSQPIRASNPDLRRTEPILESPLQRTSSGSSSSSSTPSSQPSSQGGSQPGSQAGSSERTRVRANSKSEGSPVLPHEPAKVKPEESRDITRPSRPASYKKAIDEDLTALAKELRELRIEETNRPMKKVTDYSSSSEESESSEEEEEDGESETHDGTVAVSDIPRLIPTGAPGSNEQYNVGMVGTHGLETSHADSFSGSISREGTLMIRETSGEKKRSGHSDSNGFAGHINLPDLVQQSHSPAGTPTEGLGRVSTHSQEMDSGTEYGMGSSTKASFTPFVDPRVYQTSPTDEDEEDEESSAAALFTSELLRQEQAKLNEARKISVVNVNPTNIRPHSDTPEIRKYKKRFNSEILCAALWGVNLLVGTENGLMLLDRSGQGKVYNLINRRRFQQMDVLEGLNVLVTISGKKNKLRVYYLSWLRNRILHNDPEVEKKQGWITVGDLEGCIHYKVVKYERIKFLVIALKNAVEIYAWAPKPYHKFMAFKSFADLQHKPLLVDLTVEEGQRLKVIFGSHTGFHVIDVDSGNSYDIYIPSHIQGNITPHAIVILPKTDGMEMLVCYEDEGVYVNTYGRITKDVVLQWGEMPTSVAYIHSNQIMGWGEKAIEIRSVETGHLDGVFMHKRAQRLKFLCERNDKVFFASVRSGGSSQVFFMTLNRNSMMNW

SMILES	remaining binding at 1 µM [1] [%]	remaining binding at 1 µM [2] [%]	remaining binding at 1 µM [3] [%]	remaining binding at 1 µM [4] [%]	remaining binding at 1 µM [5] [%]	remaining binding at 1 µM [6] [%]	remaining binding at 1 µM [7] [%]
CNc1nc(Nc2ccc(C(=O)N3CCOCC3)cc2OC)nc2[nH]cc(C#N)c12 [Example 1, 2-((2-methoxy-4-(morpholine-4-carbonyl)phenyl)amino)-4-(methylamino)-7H-pyrrolo[2,3-d]pyrimidine-5-carbonitrile]	83	100	93	93	100	95	13
CC1(Nc2nc(Nc3cnn([C@H]4CCN(C5COC5)C[C@@H]4F)c3Cl)nc3[nH]cc(C#N)c23)CC1 [Example 52, 2-((5-chloro-1-((3S,4S)-3-fluoro-1-(oxetane-3-yl)piperidine-4-yl)-1H-pyrazole-4-yl)amino)((1-methylcyclopropyl)amino)-7H-pyrrolo[2,3-d]pyrimidine-5-carbonitrile]	79	3.4	100	39	9.5	3.5	3
CCNc1nc(Nc2ccc(C(=O)N3CCC(N4CCOCC4)CC3)cc2OC)nc2[nH]cc(C(F)(F)F)c12 [Example 104, (4-((4-(ethylamino)-5-(trifluoromethyl)-7H-pyrrolo[2,3-d]pyrimidine-2-yl)amino)-3-methoxyphenyl)(4-morpholinopiperidine-1-yl)methanone]	84	100	100	94	81	83	0.35
